From BindingDB's records for doi:10.1124/jpet.103.062398 (Institut De Recherches Servier, 2004) come the findings set out here.

Molecules are shown by their SMILES. pKi: −log10 of the molar value. Values joined by “and” are separate entries in the source; they are usually repeats but may differ in a detail not shown here. Equal values may be shown once.

For orientation: pKi means the Ki on a negative log10 scale, so that one unit is a factor of ten. A higher pKi goes with a low Ki.

The target of one experiment is D(4) dopamine receptor (Homo sapiens, UniProt P21917).
In experiment [1] the target is D(2) dopamine receptor (Homo sapiens, UniProt P14416).
Another experiment deals with D(3) dopamine receptor (Homo sapiens, UniProt P35462).
Experiment [2] addresses D(2) dopamine receptor (Rattus norvegicus, UniProt P61169).
Experiment [3] deals with 5-hydroxytryptamine receptor 5A (Homo sapiens, UniProt P47898).
In experiment [4] the target is 5-hydroxytryptamine receptor 4 (Cavia porcellus, UniProt O70528).
Experiment [5] deals with 5-hydroxytryptamine receptor 3A (Mus musculus, UniProt P23979).
The target of experiment [6] is 5-hydroxytryptamine receptor 6 (Homo sapiens, UniProt P50406).
Experiment [7] addresses 5-hydroxytryptamine receptor 7 (Homo sapiens, UniProt P34969).
Experiment [8] concerns the target Alpha-1A adrenergic receptor (Rattus norvegicus, UniProt P43140).
The target of experiment [9] is 5-hydroxytryptamine receptor 1D (Homo sapiens, UniProt P28221).
Experiment [10] addresses 5-hydroxytryptamine receptor 2C (Homo sapiens, UniProt P28335).
Experiment [11] deals with Alpha-2A adrenergic receptor (Homo sapiens, UniProt P08913).
The target in experiment [12] is T1, Alpha-2A adrenergic receptor [16-465] (Rattus norvegicus, UniProt P22909).
T1 construct: 16-465

In experiment [13] the target is Alpha-1B adrenergic receptor (Homo sapiens, UniProt P35368).
Experiment [14] has as its target 5-hydroxytryptamine receptor 1A (Homo sapiens, UniProt P08908).
Experiment [15] addresses 5-hydroxytryptamine receptor 2B (Homo sapiens, UniProt P41595).
The target of experiment [16] is Alpha-1D adrenergic receptor (Homo sapiens, UniProt P25100).
The target of experiment [17] is Alpha-1A adrenergic receptor (Homo sapiens, UniProt P35348).
Experiment [18] has as its target Alpha-2B adrenergic receptor (Homo sapiens, UniProt P18089).
In experiment [19] the target is 5-hydroxytryptamine receptor 2A (Homo sapiens, UniProt P28223).
In experiment [20] the target is 5-hydroxytryptamine receptor 1B (Homo sapiens, UniProt P28222).
Experiment [21] addresses Alpha-2C adrenergic receptor (Homo sapiens, UniProt P18825).

D(3) dopamine receptor, sequence (P35462 as listed by the source): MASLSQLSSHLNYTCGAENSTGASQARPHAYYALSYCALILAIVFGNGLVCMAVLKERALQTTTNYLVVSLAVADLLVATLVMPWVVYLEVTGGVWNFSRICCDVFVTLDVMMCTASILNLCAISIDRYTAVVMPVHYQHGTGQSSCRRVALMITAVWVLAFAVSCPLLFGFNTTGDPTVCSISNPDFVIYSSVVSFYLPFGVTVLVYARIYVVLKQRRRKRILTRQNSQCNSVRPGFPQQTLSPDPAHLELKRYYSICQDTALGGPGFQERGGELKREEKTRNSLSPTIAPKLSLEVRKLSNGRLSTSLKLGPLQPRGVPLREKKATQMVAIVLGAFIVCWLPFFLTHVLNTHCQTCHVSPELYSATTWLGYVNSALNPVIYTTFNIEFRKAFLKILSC
D(2) dopamine receptor (Homo sapiens, UniProt P14416), sequence (P14416 whole entry): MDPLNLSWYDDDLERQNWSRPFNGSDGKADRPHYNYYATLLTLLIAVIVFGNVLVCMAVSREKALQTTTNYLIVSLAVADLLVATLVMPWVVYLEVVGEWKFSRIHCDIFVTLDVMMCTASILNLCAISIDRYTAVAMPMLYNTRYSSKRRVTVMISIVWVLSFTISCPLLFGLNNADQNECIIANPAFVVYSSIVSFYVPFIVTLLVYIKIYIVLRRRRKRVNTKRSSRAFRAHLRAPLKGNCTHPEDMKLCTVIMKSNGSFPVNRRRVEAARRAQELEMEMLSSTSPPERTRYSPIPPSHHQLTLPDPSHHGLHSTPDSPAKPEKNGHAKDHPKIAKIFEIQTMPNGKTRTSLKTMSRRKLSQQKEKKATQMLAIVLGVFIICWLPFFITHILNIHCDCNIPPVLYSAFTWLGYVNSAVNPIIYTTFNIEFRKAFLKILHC
Alpha-1A adrenergic receptor (Rattus norvegicus, UniProt P43140), sequence (P43140 whole entry): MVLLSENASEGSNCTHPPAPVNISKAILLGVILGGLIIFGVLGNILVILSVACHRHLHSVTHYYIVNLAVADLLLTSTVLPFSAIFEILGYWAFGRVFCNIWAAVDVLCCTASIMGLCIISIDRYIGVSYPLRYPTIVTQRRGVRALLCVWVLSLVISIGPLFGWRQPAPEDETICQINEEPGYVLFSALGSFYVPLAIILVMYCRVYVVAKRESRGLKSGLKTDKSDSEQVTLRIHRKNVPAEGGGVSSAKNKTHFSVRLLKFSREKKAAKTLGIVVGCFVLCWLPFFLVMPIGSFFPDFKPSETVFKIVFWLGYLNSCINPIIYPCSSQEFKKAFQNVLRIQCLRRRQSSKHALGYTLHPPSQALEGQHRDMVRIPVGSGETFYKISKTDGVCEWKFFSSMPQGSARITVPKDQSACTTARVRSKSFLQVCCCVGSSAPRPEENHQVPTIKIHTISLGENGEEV
5-hydroxytryptamine receptor 5A, sequence (P47898 whole entry): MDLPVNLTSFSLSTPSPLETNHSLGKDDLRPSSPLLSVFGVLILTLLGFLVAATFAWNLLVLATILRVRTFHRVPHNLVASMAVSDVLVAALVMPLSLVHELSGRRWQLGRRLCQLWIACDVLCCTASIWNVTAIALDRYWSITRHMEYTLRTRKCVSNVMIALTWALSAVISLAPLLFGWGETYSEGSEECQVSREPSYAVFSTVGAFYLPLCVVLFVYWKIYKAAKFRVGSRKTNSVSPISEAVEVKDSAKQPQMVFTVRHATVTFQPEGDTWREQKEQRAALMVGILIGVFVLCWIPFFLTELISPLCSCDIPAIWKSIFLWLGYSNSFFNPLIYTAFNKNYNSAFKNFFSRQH
5-hydroxytryptamine receptor 6, sequence (P50406 whole entry): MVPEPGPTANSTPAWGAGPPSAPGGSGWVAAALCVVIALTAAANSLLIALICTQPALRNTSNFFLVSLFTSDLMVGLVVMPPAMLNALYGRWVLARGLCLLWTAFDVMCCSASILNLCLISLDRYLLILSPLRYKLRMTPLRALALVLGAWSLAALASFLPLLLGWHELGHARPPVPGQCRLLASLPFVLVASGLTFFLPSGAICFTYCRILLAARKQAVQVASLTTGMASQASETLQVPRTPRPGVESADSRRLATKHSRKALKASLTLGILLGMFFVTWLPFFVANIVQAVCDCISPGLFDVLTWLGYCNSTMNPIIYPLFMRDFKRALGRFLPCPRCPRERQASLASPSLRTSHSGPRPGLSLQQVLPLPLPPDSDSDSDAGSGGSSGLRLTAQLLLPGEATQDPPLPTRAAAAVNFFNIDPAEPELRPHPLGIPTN
5-hydroxytryptamine receptor 3A, sequence (P23979 as listed by the source): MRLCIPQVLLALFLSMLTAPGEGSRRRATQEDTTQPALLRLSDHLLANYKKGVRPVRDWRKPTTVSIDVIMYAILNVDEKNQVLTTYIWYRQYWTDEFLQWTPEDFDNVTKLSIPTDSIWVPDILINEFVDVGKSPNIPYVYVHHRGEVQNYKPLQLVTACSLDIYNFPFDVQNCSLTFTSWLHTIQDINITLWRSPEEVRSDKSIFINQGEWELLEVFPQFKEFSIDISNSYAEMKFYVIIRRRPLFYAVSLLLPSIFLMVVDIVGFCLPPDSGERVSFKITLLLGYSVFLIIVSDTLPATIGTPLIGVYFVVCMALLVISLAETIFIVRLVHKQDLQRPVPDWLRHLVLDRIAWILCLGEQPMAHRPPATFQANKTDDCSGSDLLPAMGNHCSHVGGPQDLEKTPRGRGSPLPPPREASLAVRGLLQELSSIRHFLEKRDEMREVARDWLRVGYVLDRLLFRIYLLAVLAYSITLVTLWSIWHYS
5-hydroxytryptamine receptor 7, sequence (P34969 whole entry): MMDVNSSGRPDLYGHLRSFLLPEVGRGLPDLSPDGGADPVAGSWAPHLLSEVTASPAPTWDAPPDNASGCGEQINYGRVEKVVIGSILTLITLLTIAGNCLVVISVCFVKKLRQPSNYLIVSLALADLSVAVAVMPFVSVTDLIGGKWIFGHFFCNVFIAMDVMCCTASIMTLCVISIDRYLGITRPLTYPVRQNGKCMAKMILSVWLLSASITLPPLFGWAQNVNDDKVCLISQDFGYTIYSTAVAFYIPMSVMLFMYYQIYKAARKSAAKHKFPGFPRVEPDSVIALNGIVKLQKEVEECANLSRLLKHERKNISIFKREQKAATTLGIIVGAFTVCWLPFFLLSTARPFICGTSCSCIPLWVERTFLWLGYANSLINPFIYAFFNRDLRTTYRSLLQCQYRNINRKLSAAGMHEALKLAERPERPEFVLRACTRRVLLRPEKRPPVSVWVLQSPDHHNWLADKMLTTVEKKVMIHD
5-hydroxytryptamine receptor 4, sequence (O70528 whole entry): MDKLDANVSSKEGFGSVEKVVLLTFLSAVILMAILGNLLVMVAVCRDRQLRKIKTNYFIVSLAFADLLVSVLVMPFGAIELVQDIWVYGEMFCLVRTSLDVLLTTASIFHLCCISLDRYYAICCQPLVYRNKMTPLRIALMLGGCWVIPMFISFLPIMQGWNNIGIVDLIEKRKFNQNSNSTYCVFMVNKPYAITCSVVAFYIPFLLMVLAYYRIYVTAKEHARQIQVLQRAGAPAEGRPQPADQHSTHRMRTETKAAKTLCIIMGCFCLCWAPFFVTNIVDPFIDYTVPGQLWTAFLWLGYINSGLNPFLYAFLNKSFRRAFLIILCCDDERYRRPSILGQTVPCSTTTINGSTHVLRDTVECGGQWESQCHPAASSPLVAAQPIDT
D(2) dopamine receptor (Rattus norvegicus, UniProt P61169), sequence (P61169 whole entry): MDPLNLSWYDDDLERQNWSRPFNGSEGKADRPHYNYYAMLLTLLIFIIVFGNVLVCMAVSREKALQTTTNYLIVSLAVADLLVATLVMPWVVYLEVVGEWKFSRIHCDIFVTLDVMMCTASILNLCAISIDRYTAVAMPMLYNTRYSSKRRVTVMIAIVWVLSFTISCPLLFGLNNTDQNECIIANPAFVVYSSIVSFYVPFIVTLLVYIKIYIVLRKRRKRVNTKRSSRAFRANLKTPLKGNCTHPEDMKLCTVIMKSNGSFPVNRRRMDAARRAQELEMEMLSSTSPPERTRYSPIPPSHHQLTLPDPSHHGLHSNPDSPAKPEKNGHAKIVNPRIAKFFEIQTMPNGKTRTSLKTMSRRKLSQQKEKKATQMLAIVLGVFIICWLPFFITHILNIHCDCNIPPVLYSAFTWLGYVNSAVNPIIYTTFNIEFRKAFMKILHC
5-hydroxytryptamine receptor 1A, sequence (P08908 whole entry): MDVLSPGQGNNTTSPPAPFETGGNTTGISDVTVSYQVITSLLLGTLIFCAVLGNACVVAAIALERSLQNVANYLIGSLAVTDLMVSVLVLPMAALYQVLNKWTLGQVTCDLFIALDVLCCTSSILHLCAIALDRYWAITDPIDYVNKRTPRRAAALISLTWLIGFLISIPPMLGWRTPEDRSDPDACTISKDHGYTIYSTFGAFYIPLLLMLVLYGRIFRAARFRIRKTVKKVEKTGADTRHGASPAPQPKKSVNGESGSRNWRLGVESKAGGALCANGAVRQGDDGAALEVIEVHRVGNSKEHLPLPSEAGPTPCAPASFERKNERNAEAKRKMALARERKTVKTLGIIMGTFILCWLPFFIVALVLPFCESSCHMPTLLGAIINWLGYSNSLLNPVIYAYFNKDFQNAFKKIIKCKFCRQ
5-hydroxytryptamine receptor 1D, sequence (P28221 whole entry): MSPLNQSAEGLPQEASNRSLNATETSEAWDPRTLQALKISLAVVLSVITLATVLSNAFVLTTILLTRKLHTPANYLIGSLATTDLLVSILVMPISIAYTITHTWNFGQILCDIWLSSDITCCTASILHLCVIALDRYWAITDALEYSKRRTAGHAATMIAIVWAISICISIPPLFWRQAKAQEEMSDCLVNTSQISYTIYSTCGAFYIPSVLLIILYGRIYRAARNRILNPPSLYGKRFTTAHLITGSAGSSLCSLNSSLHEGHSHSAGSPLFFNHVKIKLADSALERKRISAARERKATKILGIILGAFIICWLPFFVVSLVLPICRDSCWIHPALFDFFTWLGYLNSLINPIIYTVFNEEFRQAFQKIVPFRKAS

`CCCN1CCO[C@@H]2c3cc(C(N)=O)ccc3CC[C@H]21` [S32504 (+)]: the pKi was 5.29 at D(4) dopamine receptor; 6.29 and 6.45 on D(2) dopamine receptor [1]; 8.05 on D(3) dopamine receptor; 6.34 at D(2) dopamine receptor [2].
Turning to `N#Cc1ccc2c(c1)[C@H]1CN(CCCCNC(=O)c3ccc(-c4ccccc4)cc3)C[C@@H]1CO2` [S33084], the pKi is 7.53 at D(2) dopamine receptor [1] and 9.59 on D(3) dopamine receptor.
`CCCN(CCC)CCc1cccc2c1CC(=O)N2`: the pKi was less than 5.00 in experiment [3]; less than 5.00 in experiment [4]; less than 5.00 in experiment [5]; less than 5.00 in experiment [6]; 5.82 in experiment [7]; 5.94 on D(2) dopamine receptor [2]. The compound also showed a pKi in experiment [8] of less than 5.00.
Regarding `CCCN1CCOC2c3cc(C(N)=O)ccc3CCC21` (stereo not drawn) [S32504], the negative-log Ki (pKi) in experiment [9] is 6.58; in [10] it was less than 5.00; in experiment [3], less than 5.00; in experiment [11], 5.09; in experiment [12], less than 5.00; in experiment [13], less than 5.00. In addition, the pKi was 6.59 in experiment [14]; less than 5.00 in experiment [4]; 5.34 in [15]; less than 5.00 in [5]; less than 5.00 in experiment [6]; 6.18 in experiment [7]. Besides, the pKi is less than 5.00 in experiment [16]; 8.05 on D(3) dopamine receptor; less than 5.00 in experiment [17]; 5.78 in experiment [18]; 5.28 in [19]; less than 5.00 in experiment [20]. In addition, the negative logarithm of the Ki (pKi) in experiment [8] and in experiment [21] was less than 5.00 in each case.
